{"source": "paper PMC5735092", "about": "(Scientific Reports, 2017)", "key": {"[1]": {"target": "IMPα/β1:C (Mus musculus, UniProt P52293)", "format": "binding"}, "[2]": {"system": "C-GFP nuclear import in HeLa cells", "format": "cell-based"}, "[3]": {"system": "VEEV-TC83luc", "format": "cell-based, Venezuelan equine encephalitis virus"}, "[4]": {"system": "Vero cells"}, "[5]": {"system": "C-GFP nuclear accumulation in HeLa cells", "format": "cell-based"}, "[6]": {"system": "GFP-T-ag nuclear accumulation in HeLa cells", "format": "cell-based"}, "[7]": {"system": "VEEV", "settings": "cited from earlier work"}, "[8]": {"system": "HIV-1", "settings": "cited from earlier work"}, "[9]": {"system": "IMPα/β1 binding to HIV-1 integrase", "settings": "cited from earlier work"}, "[10]": {"system": "TC83-WT", "format": "cell-based, Venezuelan equine encephalitis virus"}, "[11]": {"system": "VEEV C localization in infected Vero cells", "format": "cell-based"}}}
{"compound": "O=C(c1cc(C(=O)N2CCN(c3cccc(Cl)c3)CC2)cc(C(=O)N2CCN(c3cccc(Cl)c3)CC2)c1)N1CCN(c2cccc(Cl)c2)CC1", "note": "[AK-968/15362127]", "values": [{"measurement": "IC50", "setting": "[1]", "result": "32 ± 4.6", "unit": "µM"}]}
{"compound": "CC(=O)Nc1ccc(S(=O)(=O)Nc2ccc(C3(c4ccc(NS(=O)(=O)c5ccc(NC(C)=O)cc5)cc4)c4ccccc4-c4ccccc43)cc2)cc1", "note": "[AN-329/40863801]", "values": [{"measurement": "initial rate of C nuclear import", "setting": "[2]", "result": "significantly reduced"}, {"measurement": "maximal recovery of nuclear fluorescence (Fn(rec) max), lower than in DMSO alone treated cells", "setting": "[2]", "result": "~30", "unit": "%"}, {"measurement": "EC50", "setting": "[3]", "result": "> 50", "unit": "µM"}, {"measurement": "CC50", "setting": "[4]", "result": "> 100", "unit": "µM"}, {"measurement": "nuclear accumulation of C-GFP", "setting": "[5]", "result": "no significant effect"}, {"measurement": "nuclear accumulation of GFP-T-ag", "setting": "[6]", "result": "no significant effect"}]}
{"compound": "Ivermectin", "values": [{"measurement": "activity against VEEV", "setting": "[7]", "result": "active against VEEV"}, {"measurement": "anti-HIV-1 activity", "setting": "[8]", "result": "anti-HIV-1 activity"}, {"measurement": "inhibition of IMPα/β1 binding to HIV-1 integrase", "setting": "[9]", "result": "inhibitors of IMPα/β1 binding to HIV-1 integrase"}, {"measurement": "titer of wild-type TC83", "setting": "[10]", "result": "reduced the titer to a lesser extent"}, {"measurement": "nuclear accumulation of C-GFP", "setting": "[5]", "result": "reduced nuclear accumulation of both constructs"}, {"measurement": "nuclear accumulation of GFP-T-ag", "setting": "[6]", "result": "reduced nuclear accumulation of both constructs"}]}
{"compound": "CC#C[C@]1(O)CC[C@H]2[C@@H]3CCC4=CC(=O)CCC4=C3[C@@H](c3ccc(N(C)C)cc3)C[C@@]21C", "note": "[Mifepristone]", "values": [{"measurement": "activity against VEEV", "setting": "[7]", "result": "active against VEEV"}, {"measurement": "anti-HIV-1 activity", "setting": "[8]", "result": "anti-HIV-1 activity"}, {"measurement": "inhibition of IMPα/β1 binding to HIV-1 integrase", "setting": "[9]", "result": "inhibitors of IMPα/β1 binding to HIV-1 integrase"}, {"measurement": "titer of wild-type TC83", "setting": "[10]", "result": "significantly reduced the titer"}, {"measurement": "nuclear C staining in infected cells", "setting": "[11]", "result": "reduced nuclear C staining"}]}
